Consider one compound from patent US11180461B2, “Triazoles as Kv3 inhibitors” (AUTIFONY THERAPEUTICS LIMITED, priority 2012, dated 2021).

The experiment concerns the target T1, human Kv3.3 channels (hKv3.3) (Homo sapiens, UniProt Q14003).
T1 construct: expressed in transfected cells
T1 sequence (Q14003 1-757): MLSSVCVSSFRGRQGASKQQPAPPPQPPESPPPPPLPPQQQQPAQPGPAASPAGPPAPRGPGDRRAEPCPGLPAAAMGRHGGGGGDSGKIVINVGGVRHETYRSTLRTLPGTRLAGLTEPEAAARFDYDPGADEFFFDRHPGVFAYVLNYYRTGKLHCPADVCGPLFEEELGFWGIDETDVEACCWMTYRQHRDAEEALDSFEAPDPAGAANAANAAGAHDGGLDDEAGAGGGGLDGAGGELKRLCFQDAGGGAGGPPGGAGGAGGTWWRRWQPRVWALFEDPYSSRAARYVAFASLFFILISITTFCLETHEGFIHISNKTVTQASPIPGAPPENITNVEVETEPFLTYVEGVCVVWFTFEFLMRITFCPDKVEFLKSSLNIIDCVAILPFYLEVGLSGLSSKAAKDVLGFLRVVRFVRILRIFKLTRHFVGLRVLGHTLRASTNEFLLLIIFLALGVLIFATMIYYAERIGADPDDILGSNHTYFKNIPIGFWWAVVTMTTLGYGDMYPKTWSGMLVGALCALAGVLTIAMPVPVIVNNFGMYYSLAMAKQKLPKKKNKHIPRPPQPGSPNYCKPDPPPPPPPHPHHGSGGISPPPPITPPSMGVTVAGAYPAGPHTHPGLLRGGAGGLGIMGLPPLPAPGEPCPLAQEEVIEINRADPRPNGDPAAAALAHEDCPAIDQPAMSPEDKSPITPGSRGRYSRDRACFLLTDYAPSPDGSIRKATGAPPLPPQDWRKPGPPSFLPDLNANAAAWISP
Briefly: hKv3.3 recombinant cell assay, IonWorks Quattro planar array electrophysiology. Format: cell-based. To be noted: 12.5 micromolar; mean, n=2. The source says:
The ability of the compounds of the invention to modulate the voltage-gated potassium channel subtypes Kv3.2/3.1 may be determined using the following assay. The assay may also be used to determine the ability of compounds of the invention to modulate the voltage-gated potassium channel Kv3.3. Analogous methods may be used to investigate the ability of the compounds of the invention to modulate other channel subtypes.
To assess compound effects on human Kv3.3 channels (hKv3.3), a stable cell line expressing human Kv3.3 channels was created by transfecting Chinese Hamster Ovary (CHO)—K1 cells with a pBacMire_KCNC-3 vector. Cells were cultured in DMEM/F12 (Gibco) supplemented with 10% Foetal Bovine Serum (Gibco), 1× non-essential amino acids (Invitrogen) and geneticin (G418) 400 microg/mL. Cells were grown and maintained at 37° C. in a humidified environment containing 5% CO2 in air. […]
Experiments were conducted at room temperature using IonWorks Quattro™ planar array electrophysiology technology (Molecular Devices Corp.) with PatchPlate™ PPC. […] Planar electrode hole resistances (Rp) were determined by applying a 10 mV voltage step across each well. […] Test pulses protocol may be performed in the absence (pre-read) and presence (post-read) of the test compound. Pre- and post-reads may be separated by the compound addition followed by a 3 minute incubation. […]
In general terms: Patch clamp records ionic current or voltage across a cell membrane.

For the compound `Cc1ccc(Oc2ccc(-n3c(C)n[nH]c3=O)cn2)c2c1OCC21CC1` [Example 14, 5-methyl-4-{6-[(7-methylspiro[1-benzofuran-3,1′-cyclopropan]-4-yl)oxy]pyridin-3-yl}-2,4-dihydro-3H-1,2,4-triazol-3-one], the “increase in human Kv3.3 peak current at 0 mV” value amounted to 75%.
